Measurements from US8895725B2, “Use of 9, 10-anthraquinone compounds” (Shanghai Institute of Pharmaceutical Industry, priority 2008, dated 2014).
Values after ≈ are worked out from the molar mass of the structure shown. “Also recorded” adds a separate entry of the source. Like-named read-outs stand apart in the source and are kept apart here.

Legend:
HCV = experiment: Focus reduction assay of HCV infection; format: cell-based; details: for inhibition effect towards HCV: summary in words; for inhibition at 100 µg/mL: 100 μg/ml; for Inhibition Rate of the number of Virus foci (%): cells pre-incubated 1 hour with interferon
Description: The stock solutions with a concentration of 20 mg/ml were prepared by dissolving the samples in DMSO and were kept at 4° C. When testing, the stored stock solutions were diluted to 5 mg/ml and 2 mg/ml with DMSO.
(§1) The derivative cell line of Huh7 and the virus strain of HCV were used in this experiment. The virus strain can produce high-titer and infectious virus particles of HCV in the cells.
(§2) The cells were inoculated in 96-well flat-bottomed plates at a concentration of 1×10^4/100 μl/well and cultivated overnight. The HCV supernatant was diluted to 1×10^3 ffu/ml with complete medium (DMEM contains 10% fetal bovine serum, 100 U/ml penicillin and 100 μg/ml streptomycin) and infected the cells at 50 ffu/well.
The sample solutions with different concentrations (2 mg/ml and 1 mg/ml) were respectively diluted in complete medium at a volume ratio of 1:50 to reach the concentrations of 40 μg/ml and 20 μg/ml. […] After 1 hour of incubation at room temperature, the culture medium in the 96-well flat-bottomed plates was discarded, then 100 μl of the above mixed solution was added to each well, and then was cultured for 8 hours in 37° C. incubator containing 5% CO2. After that, the supernatant was discarded, then was washed once with phosphate buffer without calcium or magnesium ion (DPBS). 150 μl of fresh complete medium was added to each well, and then was cultured for 64 hours in 37° C. incubator containing 5% CO2. 150 μl of 4% paraformaldehyde (PFA) was added to each well, and was fixed at room temperature for 15 min. The supernatant was discarded, then was washed with DPBS for 3 times, and Immune fluorescence staining was conducted with anti HCV-E2 human monoclonal antibody and anti-human secondary antibody labeled by immunofluorescein, then was watched with fluorescence microscope and the amounts of virus colony were recorded.
In the negative control group, DMSO was used instead of the sample solutions, and other conditions were the same as that in sample testing.
The solution of the interferon was diluted to 5, 50 and 500 IU/ml respectively with complete medium, and were hatched for 1 hour with cells, then diluted virus solution was added. Other conditions were the same as that in the extract testing. The inhibition rate=(the amount of virus colony in the negative control group−the amount of viruscolony in the experimental group)/the amount of virus colony in the negative control group×100%.

[1] = test system: derivative cell line of Huh7; experiment: Cytotoxicity (cell density versus negative control group); format: cell-based
Description: as §1, §2
Instructions to Cytotoxicity: Noncytotoxic=the cell density of the experimental group/the cell density of the negative control group[…] Cytotoxicity=the cell density of the experimental group/the cell density of the negative control group<80%

[2] = Hepatitis C virus, Huh-7, 5 μg/ml, Huh7 derivative cells, read-out: Inhibition Rate of the number of Virus foci (%)
[3] = Hepatitis C virus, Huh-7, read-out: Inhibition Rate of the number of Virus foci (%)
[4] = Hepatitis C virus, Huh-7, Huh7 derivative cells, read-out: Inhibition Rate of the number of Virus foci (%)
[5] = Hepatitis C virus, Huh-7, 20 μg/ml, Huh7 derivative cells, read-out: Inhibition Rate of the number of Virus foci (%)
[6] = Hepatitis C virus, Huh-7, 10 μg/ml, Huh7 derivative cells, read-out: Inhibition Rate of the number of Virus foci (%)

Question: Which inhibition at 5 µg/mL (HCV; [2]) does the source give for `O=C1c2ccccc2C(=O)c2ccccc21` [Anthraquinone, 9,10-anthraquinone] here?
Answer: 44%

Question: And the “inhibition effect towards HCV” value (HCV)?
Answer: obvious inhibition effect

Question: What does the source list for `O=C(O)c1cc(O)c2c(c1)C(=O)c1cccc(O)c1C2=O` [Rhein, 1,8-dihydroxyl-3-carboxyl anthraquinone]?
Answer: inhibition at 5 µg/mL (HCV; [3]): 44%; inhibition at 20 µg/mL (HCV; [3]): 82%; inhibition effect towards HCV (HCV): obvious inhibition effect; Cytotoxicity ([1]; 5 μg/ml): None; Cytotoxicity ([1]; 20 μg/ml): None

Question: For `O=C1c2ccccc2C(=O)c2c(O)ccc(O)c21` [1,4-dihydroxyl-9,10-anthraquinone], which inhibition at 5 µg/mL (HCV; [3]) is on record?
Answer: 81%

Question: And the “inhibition effect towards HCV” value (HCV)?
Answer: obvious inhibition effect

Question: And the Cytotoxicity ([1]; 5 μg/ml)?
Answer: None

Question: `COc1cc(O)c2c(c1)C(=O)c1cc(C)cc(O[C@@H]3OC(CO)[C@@H](O)C(O)C3O)c1C2=O` (stereo partly drawn) [Physcion-8-O-β-D-glucoside, physcion-8-O-β-D-glucoside] was tested. Which inhibition at 100 µg/mL (HCV; [4]) did it give?
Answer: 40%

Question: And the “inhibition effect towards HCV” value (HCV)?
Answer: obvious inhibition effect

Question: And the Cytotoxicity ([1]; 100 μg/ml)?
Answer: None

Question: Which results are given for `COc1cc(O)c2c(c1)C(=O)c1cc(C)cc(O)c1C2=O` [Physcion, 1,8-dihydroxyl-3-methoxy-6-methyl anthraquinone]?
Answer: IC50 (HCV; Hepatitis C virus): 8 ng/mL (≈ 0.0281 µM); inhibition at 5 µg/mL (HCV; [2]): 100%; inhibition at 20 µg/mL (HCV; [5]): 100%; anti-HCV activity compared with the other compounds (HCV; ranking in words): better than other compounds; also recorded: the best; inhibition effect towards HCV (HCV): obvious inhibition effect; Cytotoxicity ([1]; 5 μg/ml): None; Cytotoxicity ([1]; 20 μg/ml): None

Question: Which inhibition at 5 µg/mL (HCV; [2]) does the source give for `O=c1cc(-c2ccc(O)cc2)oc2cc(O)cc(O)c12` [Apigenin, reference compound] here?
Answer: 11%

Question: And the inhibition at 20 µg/mL (HCV; [5])?
Answer: 47%

Question: How did the inhibition at 10 µg/mL (HCV; [6]) turn out when `O=C1c2ccccc2C(=O)c2c1cc(S(=O)(=O)[O-])c(O)c2O.[Na+]` [Alizarin Red S, 1,2-dihydroxylanthraquinone-3-sulfonate] was run?
Answer: 22%

Question: What about the “inhibition effect towards HCV” value (HCV) of the same compound?
Answer: obvious inhibition effect

Question: How did the inhibition at 0.04 µg/mL (HCV; Hepatitis C virus, Huh-7, 0.04 μg/ml, Huh7 derivative cells, read-out: Inhibition Rate of the number of Virus foci (%)) turn out when `O=C1c2cccc(O)c2C(=O)c2c(O)cccc21` [1,8-Dihydroxyl-9,10-anthraquinone, 1,8-dihydroxyl-9,10-anthraquinone] was run?
Answer: 45%

Question: What about the inhibition at 0.2 µg/mL (HCV; Hepatitis C virus, Huh-7, 0.2 μg/ml, Huh7 derivative cells, read-out: Inhibition Rate of the number of Virus foci (%)) of the same compound?
Answer: 100%

Question: What about the “inhibition effect towards HCV” value (HCV) of the same compound?
Answer: obvious inhibition effect

Question: How did the inhibition at 100 µg/mL (HCV; [4]) turn out when `Cc1cc(O[C@@H]2OC(CO)[C@@H](O)C(O)C2O)c2c(c1)C(=O)c1cc(O)cc(O)c1C2=O` (stereo partly drawn) [Emodin-8-O-β-D-glucoside, emodin-8-O-β-D-glucoside] was run?
Answer: 40%

Question: What about the “inhibition effect towards HCV” value (HCV) of the same compound?
Answer: obvious inhibition effect

Question: What about the Cytotoxicity ([1]; 100 μg/ml) of the same compound?
Answer: None

Question: What does the source list for α-interferon [reference compound]?
Answer: Inhibition Rate of the number of Virus foci (%) (HCV; 5 IU/ml): 53%; Inhibition Rate of the number of Virus foci (%) (HCV; 50 IU/ml): 79%; Inhibition Rate of the number of Virus foci (%) (HCV; 500 IU/ml): 98%

Question: Which results are given for `Cc1cc(O)c2c(c1)C(=O)c1cc(O)cc(O)c1C2=O` [Emodin, 1,3,8-dihydroxyl-6-methyl anthraquinone]?
Answer: inhibition at 5 µg/mL (HCV; [2]): 52%; inhibition at 10 µg/mL (HCV; [6]): 79%; inhibition at 20 µg/mL (HCV; [5]): 99%; inhibition effect towards HCV (HCV): obvious inhibition effect

Question: What does the source list for `Cc1cc(O)c2c(c1)C(=O)c1cccc(O)c1C2=O` [Chrysophanic acid, 1,8-dihydroxyl-6-methyl anthraquinone]?
Answer: inhibition at 5 µg/mL (HCV; [2]): 21%; inhibition at 10 µg/mL (HCV; [6]): 17%; inhibition at 20 µg/mL (HCV; [5]): 48%; inhibition effect towards HCV (HCV): obvious inhibition effect

Question: With `O=C1c2cccc(O)c2C(=O)c2c(O)cc(CO)cc21` [Aloe-emodin, 1,8-dihydroxyl-3-hydroxymethyl anthraquinone] as the compound, how does the inhibition at 5 µg/mL (HCV; [2]) read?
Answer: 95%

Question: What about the inhibition at 20 µg/mL (HCV; [5]) of the same compound?
Answer: 100%

Question: And the “inhibition effect towards HCV” value (HCV)?
Answer: obvious inhibition effect

Question: Which inhibition at 10 µg/mL (HCV; [3]) does the source give for `O=C1c2ccccc2C(=O)c2c1ccc(O)c2O` [Alizarin, 1,2-dihydroxyl-9,10-anthraquinone] here?
Answer: 31%

Question: What about the “inhibition effect towards HCV” value (HCV) of the same compound?
Answer: obvious inhibition effect

Question: And the Cytotoxicity ([1]; 10 μg/ml)?
Answer: None
